Square brackets hold non-standard residues; d marks the D form. Peptide text beside a SMILES is read from it.
Legend:
[1] = tested on: THP1-PMA-differentiated macrophages; experiment: LPS-induced cytokine and chemokine release in PMA differentiated THP1 macrophages (ELISA); assay type: cell-based, human
Description: The technique used is a Sandwich ELISA, which allows measuring the amount of antigen between two layers of antibodies (i.e. capture and detection antibody). The antigen to be measured must contain at least two antigenic sites capable of binding to antibody, since at least two antibodies act in the sandwich. Either monoclonal or polyclonal antibodies can be used as the capture and detection antibodies in Sandwich ELISA systems. Monoclonal antibodies recognize a single epitope that allows fine detection and quantification of small differences in antigen. A polyclonal is often used as the capture antibody to pull down as much of the antigen as possible.
In the following the procedure will be set forth describing how cytokine production from human PMA differentiated THP1 cells challenged by LPS for 6 h was induced in order to test the ability of JNK inhibitors of the present invention, in particular of a JNK inhibitor with SEQ ID NO: 172, to reduce stimulation-induced cytokine release. THP1 cells were stimulated ex-vivo by different ligands for the readout of cytokine release. At non toxic doses, JNK inhibitor efficacy is indicated by the decrease of the cytokine levels as compared to non-treated samples and is monitored by ELISA. The toxicity of the compound are evaluated by the reduction of a tretazolium salt (MTS) to formazan, giving a purple colour.
The cells were counted. The desired number of cells was taken and resuspended in the amount of media necessary to get a dilution of 1'000'000 cells/ml. 100 nM of PMA was added to induce the differentiation of the THP1 from suspension monocytes to adherent macrophages. The cells were plated into the wells in […] medium at plating densities of 100'000 cells/well. After inoculation, the plates were incubated at 37° C., 5% CO2 and 100% relative humidity 3 days to let them differentiate, prior to the addition of experimental drugs.
The plates were treated with 50 µl of medium or a solution of 4× the final desired drug concentration (0, 100 nM, 1, 3, 10 or 30 µM final for JNK compound or at 0, 10, 100 nM, 1, 3 or […] final for the SP600125 positive control). Following drug addition, the plates were incubated for an additional 1 h at 37° C., 5% CO2 and 100% relative humidity. […]
After 6 hours, 100 µl of the supernatant were transferred to new 96 well plates. Those plates were sealed and stored at −20° till the analysis by ELISA (e.g. see example 4) of the secretion of the cytokines.
Analyses of the data are performed as indicated in the ELISA (see example 4). Briefly, for ELISA: Average the triplicate readings for each standard control and each sample. Subtract the average zero standard optical density (O.D). Create a standard curve plotting the log of the cytokine concentration versus the log of the O.D and the best fit line can be determined by regression analysis. If samples have been diluted, the concentration read from the standard curve must be multiplied by the dilution factor. A standard curve should be generated for each set of samples assayed. The outliers data were avoid using Grugg's test. Then the data which weren't in the interval of two times the SD, were discard. […] The independent experiments are pooled (N>3).

[2] = tested on: IMQ-induced psoriasis in BALB/c mice; experiment: Imiquimod-induced psoriasis in mice, ear histopathology; assay type: in vivo, mouse
Description: Female BALB/cAnNCrl mice (Charles River, age 8 to 10 weeks at study start) have been assigned to the following groups (treatment schedule):
In this experiment, two positive controls have been utilized. Firstly, Prednisolone at 10 mg/kg (vehicle: 1% Hydroxyethylcellulose, 0.25% Polysorbate 80, and 0.05% Antifoam in purified water) has been dosed daily and orally (group “Prednisolone”). Secondly, Dexamethasone has been administered at 0.5 mg/kg (vehicle: sterile 0.9% NaCl) on days 1, 4 and 7 via intravenous route.
On day 8, animals have been sacrificed and the tissue (ear) has been fixed in 10% neutral buffered formalin. For histopathology hematoxylin-and-eosin-stained sections (cross cut) have been prepared and microscopic evaluation on the collected tissues from all animals has been performed. Methods and end-points for histopathology were similarly described in the van der Fits (2009) paper in that inflammation, epidermal hyperplasia, epidermal hyperkeratosis (rather than parakeratosis) were observed and recorded for severity grade, whereby the respective methodology from Van der Fits et al. (The Journal of Immunology 2009, 182, P. 5836-5845) is hereby incorporated by reference. Histopathology grading scores were excluded for either skin or ear in animals with secondary inflammatory processes (full thickness epidermal ulcers). Scores were averaged by group and standard deviation and statistical significance were calculated. […] Formalin-fixed, paraffin embedded skin from the dorsal surface of the mouse (BALB/c) was stained with hematoxylin and eosin (H&E) stain and assessed microscopically. An important difference from the above reference and to describe in more detail the observations of the present study: Hyperkeratosis can be defined specifically as orthokeratotic (no retained nuclei) or parakeratotic (retained nuclei). Either can occur normally in various anatomical locations and depending on species; however, both conditions are well defined in particular disease states. The van der Fits paper describes their Imiquimod (IMQ)-induced psoriasis model as causing parakeratotic hyperkeratosis similar to what is seen in the human condition, and that was a defined end-point for this study. However, the Danilenko et al. (Veterinary Pathology 2008 45:563) has shown that many rodent psoriasis models have orthokeratotic hyperkeratosis. […] The more general term ‘hyperkeratosis’ was used for grading end-points and describe in the text what type was seen (primarily orthokeratotic).
1=MI=minimal 2=SL=slight 3=M0=moderate 4=MA=marked 5=SE=severe

[3] = tested on: established type II collagen arthritis in rats
[4] = SEQ ID NO: 172 0.01-5 mg/kg IV QD

CC(C)C[C@H](NC(=O)[C@H](CC(N)=O)NC(=O)[C@H](CC(C)C)NC(=O)[C@@H](NC(=O)[C@@H](C)NC(=O)[C@@H]1CCCN1C(=O)[C@H](CCCNC(=N)N)NC(=O)[C@@H](CCCCN)NC(=O)[C@@H]1CCCN1C(=O)[C@H](CCCNC(=N)N)NC(=O)[C@@H](CCCNC(=N)N)NC(=O)[C@H](CCCNC(=N)N)NC(=O)[C@H](CCCNC(=N)N)NC(=O)[C@H](CCC(N)=O)NC(=O)[C@@H](CCCNC(=N)N)NC(=O)[C@H](CCCNC(=N)N)NC(=O)[C@H](CCCCN)NC(=O)[C@H](CCCCN)NC(=O)[C@H](N)CCCNC(=N)N)[C@@H](C)O)C(=O)N[C@H](Cc1ccccc1)C(N)=O [SEQ ID NO: 172, rKKRrQRRrRPkRPaTLNLf] (H-[dR]KKR[dR]QRR[dR]RP[dK]RP[dA]TLNL[dF]-NH2)
LPS-induced IL6 release, potency compared with SEQ ID NO: 197, SEQ ID NO: 45 and SP 600125 ([1]; LPS 6 h (10 ng/ml)): higher potency
LPS-induced TNFα release, potency compared with SEQ ID NO: 197, SEQ ID NO: 45 and SP 600125 ([1]; LPS 6 h (10 ng/ml)): higher potency
LPS-induced TNFα release, potency compared with SEQ ID NO: 197 and SEQ ID NO: 196 ([1]; PMA differentiated macrophages): higher potency
LPS-induced IL-6 release, potency compared with SEQ ID NO: 197 and SEQ ID NO: 196 ([1]; PMA differentiated macrophages, LPS 6 h): higher potency
LPS-induced cytokine and chemokine release (TNF, IL 6, MCP1) ([1]; THP1pma, 6 h, 3 or 10 ng/ml LPS): blocks LPS-induced cytokine and chemokine release
inflammation of the ear (average histopathology grade) vs vehicle-IMQ group ([2]; high-dose 2 mg/kg IV days 1, 4, 7): decreased inflammation of the ear
epidermal hyperkeratosis of the ear, average grades vs vehicle-IMQ group ([2]; low-dose 0.02 mg/kg IV days 1, 4, 7): minimally decreased average grades
inflammation of the ear (average histopathology grade) vs vehicle-IMQ group ([2]; mid-dose 0.2 mg/kg IV days 1, 4, 7, statistically significant, 0.2 mg/kg): decreased inflammation of the ear
inflammation of the ear (average histopathology grade) vs vehicle-IMQ group ([2]; mid-dose 0.2 mg/kg IV days 1, 4, 7, statistically significant, listed as XG-104, 0.2 mg/kg): significant differences from the vehicle control group
epidermal hyperplasia of the ear vs vehicle-IMQ group ([2]; mid-dose 0.2 mg/kg IV, not statistically significant): Minimal decreases in epidermal hyperplasia of the ear
daily ankle diameter measurements vs disease controls ([3]; 5 mg/kg IV QD, p<0.05 days 4-12): significantly (p<0.05 by 2-way RM ANOVA) reduced toward normal
adverse effect on organ weights ([3]; IV QD days 1-14): no adverse effect on organ weights
relative spleen weights [3, 4]: not significantly affected
relative thymus weights [3, 4]: not significantly affected
